Data reported in PMC11127949, “Selective targeting of IRAK1 attenuates low molecular weight hyaluronic acid-induced stemness and non-canonical STAT3 activation in epithelial ovarian cancer” (Cell Death & Disease, 2024).

Biological target: T1, IRAK1 (Homo sapiens, UniProt P51617)
T1 construct: active recombinant IRAK1 enzyme
Assay: SPR ([…] model); supported by KINOMEscan active-site competition binding and CETSA in A2780 cells

T1 sequence (P51617 whole entry): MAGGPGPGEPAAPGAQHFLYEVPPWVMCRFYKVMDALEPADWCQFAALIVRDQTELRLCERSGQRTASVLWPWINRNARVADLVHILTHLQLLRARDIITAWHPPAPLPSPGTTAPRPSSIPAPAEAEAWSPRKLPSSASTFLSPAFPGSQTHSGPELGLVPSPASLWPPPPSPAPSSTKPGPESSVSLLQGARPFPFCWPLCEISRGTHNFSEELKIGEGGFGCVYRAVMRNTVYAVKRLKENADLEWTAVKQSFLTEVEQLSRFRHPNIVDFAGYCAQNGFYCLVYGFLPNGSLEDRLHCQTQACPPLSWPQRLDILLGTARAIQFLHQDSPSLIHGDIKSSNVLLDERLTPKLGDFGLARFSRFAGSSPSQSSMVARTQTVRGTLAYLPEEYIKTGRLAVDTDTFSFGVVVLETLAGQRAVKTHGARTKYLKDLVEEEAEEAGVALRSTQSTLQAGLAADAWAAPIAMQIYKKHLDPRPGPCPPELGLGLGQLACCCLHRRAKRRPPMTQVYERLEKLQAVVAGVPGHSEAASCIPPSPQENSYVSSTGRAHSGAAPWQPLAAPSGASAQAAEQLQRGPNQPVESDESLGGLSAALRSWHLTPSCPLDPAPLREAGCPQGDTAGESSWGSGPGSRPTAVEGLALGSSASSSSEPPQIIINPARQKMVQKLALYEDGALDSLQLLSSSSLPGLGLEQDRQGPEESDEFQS

`O=C(NO)c1ccc2[nH]c(=O)c(CCCc3ccccc3)nc2c1` [TCS2210] gave a Kd of 1.76 µM.
